For one data set, the target named is recombinant PI3 kinase α (Homo sapiens (Human), UniProt P42336). The experiment in a line: Enzyme Inhibition Assay (HTRF PI3K enzyme assay, TR-FRET). Format: biochemical. The settings on record: activity range; read-out: PI3 Kinase Inhibition IC50 values at stated Isozyme α. Put shortly: (§1)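 TR-FRET readout after 15-18 hr at RT with biotinylated PIP3, GST-tagged GRP1 PH domain and europium/APC fluorophores; product PIP3 displaces the tracer and lowers the signal. Beforehand, compound and PIP2 were reacted for 2 hr at RT with human recombinant PI3Kα, δ or γ.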
recombinant PI3 kinase α, sequence (P42336 whole entry, the tested form may be a part): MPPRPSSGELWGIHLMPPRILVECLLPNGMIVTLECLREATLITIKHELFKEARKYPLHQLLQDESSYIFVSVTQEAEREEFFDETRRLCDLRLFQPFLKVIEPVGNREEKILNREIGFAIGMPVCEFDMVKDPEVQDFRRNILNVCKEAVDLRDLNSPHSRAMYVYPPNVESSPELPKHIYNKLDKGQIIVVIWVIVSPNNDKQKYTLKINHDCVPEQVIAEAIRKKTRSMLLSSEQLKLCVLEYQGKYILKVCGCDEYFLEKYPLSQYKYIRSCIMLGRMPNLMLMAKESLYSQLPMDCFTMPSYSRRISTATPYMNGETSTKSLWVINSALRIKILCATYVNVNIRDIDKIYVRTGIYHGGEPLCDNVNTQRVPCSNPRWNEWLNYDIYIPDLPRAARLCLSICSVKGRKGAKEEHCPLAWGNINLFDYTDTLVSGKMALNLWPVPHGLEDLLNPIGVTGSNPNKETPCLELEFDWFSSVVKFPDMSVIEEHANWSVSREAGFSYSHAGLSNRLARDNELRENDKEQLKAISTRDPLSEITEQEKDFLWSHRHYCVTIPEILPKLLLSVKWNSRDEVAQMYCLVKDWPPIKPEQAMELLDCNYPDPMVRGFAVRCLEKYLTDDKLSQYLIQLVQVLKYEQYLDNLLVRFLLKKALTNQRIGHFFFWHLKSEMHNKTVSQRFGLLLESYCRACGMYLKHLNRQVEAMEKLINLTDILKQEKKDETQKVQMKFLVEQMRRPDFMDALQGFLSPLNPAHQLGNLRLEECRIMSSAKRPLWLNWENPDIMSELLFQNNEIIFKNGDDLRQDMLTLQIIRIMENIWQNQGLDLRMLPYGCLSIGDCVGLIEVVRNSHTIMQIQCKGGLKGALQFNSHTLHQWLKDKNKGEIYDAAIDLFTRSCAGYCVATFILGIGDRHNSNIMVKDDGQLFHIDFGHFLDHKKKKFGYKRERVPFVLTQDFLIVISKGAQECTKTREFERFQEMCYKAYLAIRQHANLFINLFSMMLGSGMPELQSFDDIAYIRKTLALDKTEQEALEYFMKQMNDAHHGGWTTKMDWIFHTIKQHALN
recombinant PI3 kinase α, sequence (P27986 whole entry partner, the tested form may be a part): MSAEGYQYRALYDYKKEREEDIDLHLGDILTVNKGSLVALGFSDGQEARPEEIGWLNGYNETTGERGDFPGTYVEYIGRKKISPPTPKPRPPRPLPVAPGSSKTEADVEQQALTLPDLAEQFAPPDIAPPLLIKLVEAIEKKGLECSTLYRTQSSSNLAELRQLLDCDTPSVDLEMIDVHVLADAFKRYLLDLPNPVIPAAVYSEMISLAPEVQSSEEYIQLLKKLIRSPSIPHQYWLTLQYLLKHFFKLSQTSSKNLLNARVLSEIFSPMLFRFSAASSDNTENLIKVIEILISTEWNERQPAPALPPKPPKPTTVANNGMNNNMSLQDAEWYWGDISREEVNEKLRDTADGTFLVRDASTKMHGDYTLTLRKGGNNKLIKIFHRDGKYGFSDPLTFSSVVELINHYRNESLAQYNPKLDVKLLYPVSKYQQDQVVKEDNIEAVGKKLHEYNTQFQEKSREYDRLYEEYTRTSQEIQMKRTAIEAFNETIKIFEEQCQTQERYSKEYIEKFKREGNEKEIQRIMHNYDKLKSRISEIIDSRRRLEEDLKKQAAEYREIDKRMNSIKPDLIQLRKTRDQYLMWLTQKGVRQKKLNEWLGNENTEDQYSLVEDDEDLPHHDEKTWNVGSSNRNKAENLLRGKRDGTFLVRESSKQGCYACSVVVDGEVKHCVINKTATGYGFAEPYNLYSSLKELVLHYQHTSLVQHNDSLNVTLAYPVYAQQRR

In a further data set the target is recombinant PI3 kinase γ (Homo sapiens (Human), UniProt P48736). The description is as above. In kind it is biochemical. The following applies: activity range; read-out: PI3 Kinase Inhibition IC50 values at stated Isozyme γ. In a few lines: as §1
recombinant PI3 kinase γ, sequence (P48736 whole entry): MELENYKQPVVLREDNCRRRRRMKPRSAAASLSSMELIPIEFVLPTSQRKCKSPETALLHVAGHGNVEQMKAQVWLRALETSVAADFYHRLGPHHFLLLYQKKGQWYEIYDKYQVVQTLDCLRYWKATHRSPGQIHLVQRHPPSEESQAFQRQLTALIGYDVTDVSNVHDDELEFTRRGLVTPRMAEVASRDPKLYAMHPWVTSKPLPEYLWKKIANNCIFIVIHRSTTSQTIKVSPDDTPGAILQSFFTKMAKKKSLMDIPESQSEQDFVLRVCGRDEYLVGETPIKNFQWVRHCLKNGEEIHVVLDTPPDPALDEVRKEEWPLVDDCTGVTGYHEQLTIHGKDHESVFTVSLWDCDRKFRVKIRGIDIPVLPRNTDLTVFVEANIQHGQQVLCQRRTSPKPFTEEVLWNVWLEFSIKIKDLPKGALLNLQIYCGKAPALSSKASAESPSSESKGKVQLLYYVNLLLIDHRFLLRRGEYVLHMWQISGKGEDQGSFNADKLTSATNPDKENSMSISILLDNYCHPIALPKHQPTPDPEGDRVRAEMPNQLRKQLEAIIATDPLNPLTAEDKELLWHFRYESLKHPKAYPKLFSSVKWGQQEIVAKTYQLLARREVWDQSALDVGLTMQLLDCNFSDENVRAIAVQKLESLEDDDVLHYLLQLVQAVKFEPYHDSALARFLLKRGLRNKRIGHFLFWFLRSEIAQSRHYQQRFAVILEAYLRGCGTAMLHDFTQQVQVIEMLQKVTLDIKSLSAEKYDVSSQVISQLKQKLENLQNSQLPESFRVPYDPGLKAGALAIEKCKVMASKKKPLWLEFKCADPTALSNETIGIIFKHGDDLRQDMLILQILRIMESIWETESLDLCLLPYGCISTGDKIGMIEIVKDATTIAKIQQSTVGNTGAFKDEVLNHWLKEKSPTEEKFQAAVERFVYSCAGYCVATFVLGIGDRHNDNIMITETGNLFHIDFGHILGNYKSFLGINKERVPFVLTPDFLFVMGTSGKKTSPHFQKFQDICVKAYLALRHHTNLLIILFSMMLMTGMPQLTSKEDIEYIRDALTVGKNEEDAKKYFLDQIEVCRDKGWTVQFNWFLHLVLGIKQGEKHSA
A further data set deals with recombinant PI3 kinase δ (Homo sapiens (Human), UniProt O00329). The data set is described as above. In kind it is biochemical. The following applies: activity range; read-out: PI3 Kinase Inhibition IC50 values at stated Isozyme δ. Put shortly: as §1
recombinant PI3 kinase δ, sequence (O00329 whole entry): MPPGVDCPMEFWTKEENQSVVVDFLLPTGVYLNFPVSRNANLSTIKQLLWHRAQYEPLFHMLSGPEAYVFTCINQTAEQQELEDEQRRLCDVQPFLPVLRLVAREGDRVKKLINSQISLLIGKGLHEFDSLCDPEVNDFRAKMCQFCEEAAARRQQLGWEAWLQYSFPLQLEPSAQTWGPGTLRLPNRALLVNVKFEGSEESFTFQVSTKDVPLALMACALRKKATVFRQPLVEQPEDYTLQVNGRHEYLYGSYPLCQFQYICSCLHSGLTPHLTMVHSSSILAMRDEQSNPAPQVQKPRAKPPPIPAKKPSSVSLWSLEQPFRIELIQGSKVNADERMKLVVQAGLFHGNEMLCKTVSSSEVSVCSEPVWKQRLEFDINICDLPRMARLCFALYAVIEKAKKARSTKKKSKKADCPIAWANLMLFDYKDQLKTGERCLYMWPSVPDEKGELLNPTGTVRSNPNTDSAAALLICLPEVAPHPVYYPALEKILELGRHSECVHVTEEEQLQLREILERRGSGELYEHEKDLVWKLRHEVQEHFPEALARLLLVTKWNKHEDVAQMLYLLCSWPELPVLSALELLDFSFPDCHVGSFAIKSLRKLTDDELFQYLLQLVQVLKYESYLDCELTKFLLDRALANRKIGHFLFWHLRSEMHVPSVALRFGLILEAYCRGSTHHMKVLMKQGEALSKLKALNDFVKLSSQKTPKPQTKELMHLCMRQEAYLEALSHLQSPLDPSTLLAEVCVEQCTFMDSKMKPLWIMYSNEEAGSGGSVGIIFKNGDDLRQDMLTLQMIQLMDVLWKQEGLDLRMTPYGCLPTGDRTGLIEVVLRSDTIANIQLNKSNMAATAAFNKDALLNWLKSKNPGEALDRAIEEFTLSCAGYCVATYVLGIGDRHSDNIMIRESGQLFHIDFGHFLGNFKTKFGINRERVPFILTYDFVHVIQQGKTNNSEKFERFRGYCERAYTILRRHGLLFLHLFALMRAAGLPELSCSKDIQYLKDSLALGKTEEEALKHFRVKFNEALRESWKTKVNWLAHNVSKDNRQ
recombinant PI3 kinase δ, sequence (P27986 whole entry partner): as the sequence (P27986 whole entry partner, the tested form may be a part) above
Data set [1] concerns PMA-differentiated U937 cells. Description: MTT Assay (cell viability). Format: cell-based, Human. The settings on record: percentage loss of cell viability; for Cell Viability MTT Assay in D-U937 cells at 4 hr: 4 hr in 5% FCS; for Cell Viability MTT Assay in D-U937 cells at 24 hr: 24 hr in 10% FCS. In a few lines:
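Differentiated U937 cells treated with compound for 4 hr (5% FCS) or 24 hr (10% FCS), then given MTT for 1 hr; formazan dissolved in DMSO and absorbance read at 550 nm. Viability loss expressed as % versus 0.5% DMSO vehicle.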

The test system of data set [2] is H2O2 induced pAkt in D-U937 cells. The experiment in a line: PI3Kδ Cell Based Assay (H2O2 induced pAkt). The settings on record: Homo sapiens, dU937; activity range; D-U937 cells; read-out: Cellular Activity IC50 values (H2O2 induced pAkt D-U937 Cells). In a few lines:
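Read-out is the pAkt/total Akt signal ratio, measured with anti-pAkt and anti-pan-Akt antibodies after H2O2 stimulation. Cells were U937 monocytes given PMA (100 ng/mL) for 48 to 72 hr. IC50 values fitted from compound serial dilutions.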

Some results are limits rather than exact numbers.

One may read the IC50 as the concentration needed to halve the response being measured.

`Nc1ncnc2c1c(-c1ccc(O)cc1)nn2Cc1nc2cccc(C#CCCCC(=O)NC3CCOCC3)c2c(=O)n1Cc1ccccc1Cl` [Example 75, 6-(2-((4-Amino-3-(4-hydroxyphenyl)-1H-pyrazolo[3,4-d]pyrimidin-1-yl)methyl)-3-(2-chlorobenzyl)-4-oxo-3,4-dihydroquinazolin-5-yl)-N-(tetrahydro-2H-pyran-4-yl) hex-5-ynamide]: the IC50 is 50 to 1000 nM on recombinant PI3 kinase α, less than 50 nM at recombinant PI3 kinase γ, less than 50 nM at recombinant PI3 kinase δ and less than 10 nM in data set [2]. Further, in data set [1], the “Cell Viability MTT Assay in D-U937 cells at 4 hr” value is reported as “− (− <30%)”. The “Cell Viability MTT Assay in D-U937 cells at 24 hr” value in data set [1] is “− (− <30%)”.

In the case of `C#Cc1cccc2nc(Cn3nc(-c4ccc(O)cc4)c4c(N)ncnc43)n(Cc3ccc(Cl)cc3F)c(=O)c12` [Example 35, 2-((4-Amino-3-(4-hydroxyphenyl)-1H-pyrazolo[3,4-d]pyrimidin-1-yl)methyl)-3-(4-chloro-2-fluorobenzyl)-5-ethynylquinazolin-4(3H)-one], the 50% inhibitory concentration (IC50) was 50 to 1000 nM on recombinant PI3 kinase α, 50 to 1000 nM on recombinant PI3 kinase γ, less than 50 nM at recombinant PI3 kinase δ and less than 10 nM in data set [2]. Moreover, the “Cell Viability MTT Assay in D-U937 cells at 4 hr” value in data set [1] is “− (− <30%)”. In data set [1], the “Cell Viability MTT Assay in D-U937 cells at 24 hr” value is reported as “− (− <30%)”.

For `Nc1ncnc2c1c(-c1cccc(O)c1)nn2Cc1nc2cccc(C#CCCCC(=O)N3CCOCC3)c2c(=O)n1Cc1ccc2occc2c1` [Example 67, 2-((4-Amino-3-(3-hydroxyphenyl)-1H-pyrazolo[3,4-d]pyrimidin-1-yl)methyl)-3-(benzofuran-5-ylmethyl)-5-(6-morpholino-6-oxohex-1-yn-1-yl)quinazolin-4(3H)-one], the IC50 is 50 to 1000 nM on recombinant PI3 kinase α, less than 50 nM on recombinant PI3 kinase γ, less than 50 nM on recombinant PI3 kinase δ and less than 10 nM in data set [2]. For the same compound, the “Cell Viability MTT Assay in D-U937 cells at 4 hr” value in data set [1] is “− (− <30%)”. The “Cell Viability MTT Assay in D-U937 cells at 24 hr” value in data set [1] was “− (− <30%)”.

As for `Nc1ncnc2c1c(-c1ccc(O)cc1)nn2Cc1nc2cccc(C#CCCCC(=O)NCCN3CCOCC3)c2c(=O)n1Cc1ccccc1Cl` [Example 76, 6-(2-((4-Amino-3-(4-hydroxyphenyl)-1H-pyrazolo[3,4-d]pyrimidin-1-yl)methyl)-3-(2-chlorobenzyl)-4-oxo-3,4-dihydroquinazolin-5-yl)-N-(2-morpholinoethyl)hex-5-ynamide], the 50% inhibitory concentration (IC50) was 50 to 1000 nM at recombinant PI3 kinase α, less than 50 nM at recombinant PI3 kinase γ, less than 50 nM on recombinant PI3 kinase δ and less than 10 nM in data set [2]. In data set [1], the “Cell Viability MTT Assay in D-U937 cells at 4 hr” value is recorded as “− (− <30%)”. The “Cell Viability MTT Assay in D-U937 cells at 24 hr” value in data set [1] is recorded as “− (− <30%)”.

For `CN(C)C1CCN(C(=O)CCCC#Cc2cccc3nc(Cn4nc(-c5ccc(O)cc5)c5c(N)ncnc54)n(Cc4ccccc4Cl)c(=O)c23)C1` (stereo not drawn) [Example 91, 2-((4-Amino-3-(4-hydroxyphenyl)-1H-pyrazolo[3,4-d]pyrimidin-1-yl)methyl)-3-(2-chlorobenzyl)-5-(6-(3-(dimethylamino)pyrrolidin-1-yl)-6-oxohex-1-ynyl) quinazolin-4(3H)-one], the concentration for half-maximal inhibition (IC50) at recombinant PI3 kinase α is 50 to 1000 nM; at recombinant PI3 kinase γ it was less than 50 nM; on recombinant PI3 kinase δ, less than 50 nM; in data set [2], less than 10 nM. Also, in data set [1], the “Cell Viability MTT Assay in D-U937 cells at 4 hr” value is reported as “− (− <30%)”. Besides, in data set [1], the “Cell Viability MTT Assay in D-U937 cells at 24 hr” value is “− (− <30%)”.

As for `COCCOCCOCC#Cc1cccc2nc(Cn3nc(-c4cccc(O)c4)c4c(N)ncnc43)n(Cc3ccccc3F)c(=O)c12` [Example 50, 2-((4-Amino-3-(3-hydroxyphenyl)-1H-pyrazolo[3,4-d]pyrimidin-1-yl)methyl)-3-(2-fluorobenzyl)-5-(3-(2-(2-methoxyethoxy)ethoxy)prop-1-ynyl)quinazolin-4(3H)-one], the IC50 at recombinant PI3 kinase α was 50 to 1000 nM; at recombinant PI3 kinase γ it was 50 to 1000 nM; on recombinant PI3 kinase δ it was less than 50 nM; in data set [2], less than 10 nM. Further, in data set [1], the “Cell Viability MTT Assay in D-U937 cells at 4 hr” value is listed as “− (− <30%)”. The “Cell Viability MTT Assay in D-U937 cells at 24 hr” value in data set [1] is “− (− <30%)”.

With `Nc1ncnc2c1c(-c1cccc(O)c1)nn2Cc1nc2cccc(C#CCCCC(=O)N3CCOCC3)c2c(=O)n1Cc1ccccc1Cl` [Example 3, 2-((4-Amino-3-(3-hydroxyphenyl)-1H-pyrazolo[3,4-d]pyrimidin-1-yl)methyl)-3-(2-chlorobenzyl)-5-(6-morpholino-6-oxohex-1-yn-1-yl)quinazolin-4(3H)-one], the 50% inhibitory concentration (IC50) on recombinant PI3 kinase α is less than 50 nM; at recombinant PI3 kinase γ, less than 50 nM; at recombinant PI3 kinase δ it was less than 50 nM; in data set [2], less than 10 nM. In data set [1], the “Cell Viability MTT Assay in D-U937 cells at 4 hr” value is given as “− (− <30%)”. Further, the “Cell Viability MTT Assay in D-U937 cells at 24 hr” value in data set [1] was “− (− <30%)”.

For `COCCN1CCN(C(=O)CCCC#Cc2cccc3nc(Cn4nc(-c5ccc(O)cc5)c5c(N)ncnc54)n(Cc4ccccc4Cl)c(=O)c23)CC1` [Example 77, 2-((4-Amino-3-(4-hydroxyphenyl)-1H-pyrazolo[3,4-d]pyrimidin-1-yl)methyl)-3-(2-chlorobenzyl)-5-(6-(4-(2-methoxyethyl)piperazin-1-yl)-6-oxohex-1-ynyl) quinazolin-4(3H)-one], the IC50 is 50 to 1000 nM at recombinant PI3 kinase α, less than 50 nM at recombinant PI3 kinase γ, less than 50 nM at recombinant PI3 kinase δ and less than 10 nM in data set [2]. Besides, in data set [1], the “Cell Viability MTT Assay in D-U937 cells at 4 hr” value is “− (− <30%)”. Besides, the “Cell Viability MTT Assay in D-U937 cells at 24 hr” value in data set [1] is recorded as “− (− <30%)”.

With `CCN(CC)C(=O)CCCC#Cc1cccc2nc(Cn3nc(-c4ccc(O)cc4)c4c(N)ncnc43)n(Cc3ccccc3Cl)c(=O)c12` [Example 59, 6-(2-((4-Amino-3-(4-hydroxyphenyl)-1H-pyrazolo[3,4-d]pyrimidin-1-yl)methyl)-3-(2-chlorobenzyl)-4-oxo-3,4-dihydroquinazolin-5-yl)-N,N-diethylhex-5-ynamide], the half-inhibitory concentration (IC50) at recombinant PI3 kinase α is 50 to 1000 nM; on recombinant PI3 kinase γ, less than 50 nM; at recombinant PI3 kinase δ, less than 50 nM; in data set [2], less than 10 nM. In addition, in data set [1], the “Cell Viability MTT Assay in D-U937 cells at 4 hr” value is given as “− (− <30%)”. The “Cell Viability MTT Assay in D-U937 cells at 24 hr” value in data set [1] is “− (− <30%)”.

For the compound `Cn1cc(Cn2c(Cn3nc(-c4cccc(O)c4)c4c(N)ncnc43)nc3cccc(C#CCCCC(=O)N4CCOCC4)c3c2=O)cn1` [Example 66], the 50% inhibitory concentration (IC50) at recombinant PI3 kinase α was 50 to 1000 nM; at recombinant PI3 kinase γ it was less than 50 nM; at recombinant PI3 kinase δ, less than 50 nM; in data set [2] it was less than 10 nM. Also, the “Cell Viability MTT Assay in D-U937 cells at 4 hr” value in data set [1] is “− (− <30%)”. Also, in data set [1], the “Cell Viability MTT Assay in D-U937 cells at 24 hr” value is “+ (+ >30%)”.

In the case of `Nc1ncnc2c1c(-c1ccc(O)cc1)nn2Cc1nc2cccc(C#CCOc3ccccc3)c2c(=O)n1Cc1ccccc1Cl` [Example 52, 2-((4-Amino-3-(4-hydroxyphenyl)-1H-pyrazolo[3,4-d]pyrimidin-1-yl)methyl)-3-(2-chlorobenzyl)-5-(3-phenoxyprop-1-ynyl)quinazolin-4(3H)-one], the IC50 at recombinant PI3 kinase α is 50 to 1000 nM; on recombinant PI3 kinase γ, less than 50 nM; on recombinant PI3 kinase δ, less than 50 nM; in data set [2], less than 10 nM. Besides, the “Cell Viability MTT Assay in D-U937 cells at 4 hr” value in data set [1] is recorded as “− (− <30%)”. In data set [1], the “Cell Viability MTT Assay in D-U937 cells at 24 hr” value is on record as “− (− <30%)”.

`COCCNC(=O)CCCC#Cc1cccc2nc(Cn3nc(-c4cccc(O)c4)c4c(N)ncnc43)n(Cc3ccccc3Cl)c(=O)c12` [Example 54, 6-(2-((4-Amino-3-(3-hydroxyphenyl)-1H-pyrazolo[3,4-d]pyrimidin-1-yl)methyl)-3-(2-chlorobenzyl)-4-oxo-3,4-dihydroquinazolin-5-yl)-N-(2-methoxyethyl)hex-5-ynamide]: the IC50 is less than 50 nM on recombinant PI3 kinase α, less than 50 nM at recombinant PI3 kinase γ, less than 50 nM on recombinant PI3 kinase δ and less than 10 nM in data set [2]. Also, the “Cell Viability MTT Assay in D-U937 cells at 4 hr” value in data set [1] is recorded as “− (− <30%)”. Further, the “Cell Viability MTT Assay in D-U937 cells at 24 hr” value in data set [1] was “− (− <30%)”.

Regarding `Nc1ncnc2c1c(-c1ccc(O)cc1)nn2Cc1nc2cccc(C#CCCCO)c2c(=O)n1Cc1ccccc1Cl` [Example 41, 2-((4-Amino-3-(4-hydroxyphenyl)-1H-pyrazolo[3,4-d]pyrimidin-1-yl)methyl)-3-(2-chlorobenzyl)-5-(5-hydroxypent-1-ynyl)quinazolin-4(3H)-one], the IC50 at recombinant PI3 kinase α was 50 to 1000 nM; at recombinant PI3 kinase γ, 50 to 1000 nM; at recombinant PI3 kinase δ, less than 50 nM; in data set [2], less than 10 nM. Also, the “Cell Viability MTT Assay in D-U937 cells at 4 hr” value in data set [1] is “− (− <30%)”. Further, the “Cell Viability MTT Assay in D-U937 cells at 24 hr” value in data set [1] was “− (− <30%)”.

In the case of `NC(=O)NCC#Cc1cccc2nc(Cn3nc(-c4ccc(O)cc4)c4c(N)ncnc43)n(Cc3ccccc3Cl)c(=O)c12` [Example 49, 1-(3-(2-((4-Amino-3-(4-hydroxyphenyl)-1H-pyrazolo[3,4-d]pyrimidin-1-yl)methyl)-3-(2-chlorobenzyl)-4-oxo-3,4-dihydroquinazolin-5-yl)prop-2-ynyl)urea], the IC50 at recombinant PI3 kinase α is 50 to 1000 nM; on recombinant PI3 kinase γ it was 50 to 1000 nM; on recombinant PI3 kinase δ it was less than 50 nM; in data set [2], less than 10 nM. For the same compound, the “Cell Viability MTT Assay in D-U937 cells at 4 hr” value in data set [1] is on record as “− (− <30%)”. The “Cell Viability MTT Assay in D-U937 cells at 24 hr” value in data set [1] is “− (− <30%)”.
